Laboratory results from ChEMBL document CHEMBL4014354, “2'-Chloro,2'-fluoro Ribonucleotide Prodrugs with Potent Pan-genotypic Activity against Hepatitis C Virus Replication in Culture” (J Med Chem, 2017).

Experiments:
[1] = test system: Hepatitis C virus; assay: Antiviral activity against HCV genotype 1b harboring wild type NS5B infected in human HuH7 cells assessed as inhibition of viral RNA replication after 5 days by RT-PCR method; assay type: functional, cell-based, Hepacivirus hominis; details: Huh-7, 120 h
[2] = Cytotoxicity against human HuH7 cells assessed as inhibition of cell proliferation after 4 days by MTS assay; assay type: cell-based, Huh-7
[3] = Cytotoxicity against human PBMC assessed as inhibition of cell proliferation after 5 days by MTT assay; assay type: cell-based
[4] = Cytotoxicity against human CEM cells assessed as inhibition of cell proliferation after 4 days by MTT assay; assay type: cell-based, CCRF-CEM
[5] = Cytotoxicity against African green monkey Vero cells assessed as inhibition of cell proliferation after 3 days by MTT assay; assay type: cell-based; details: chlorocebus sabaeus
[6] = test system: Hepatitis C virus; assay: Antiviral activity against HCV genotype 1a infected in human HuH7 cells assessed as inhibition of viral RNA replication after 96 hrs by RT-PCR method; assay type: functional, cell-based, Hepacivirus hominis; details: subtype 1a, Huh-7, 96 h
[7] = test system: Hepatitis C virus; assay: Antiviral activity against HCV genotype 1b infected in human HuH7 cells assessed as inhibition of viral RNA replication after 96 hrs by RT-PCR method; assay type: functional, cell-based, Hepacivirus hominis; details: Huh-7, 96 h
[8] = test system: Hepatitis C virus; assay: Antiviral activity against HCV genotype 2a/k infected in human HuH7 cells assessed as inhibition of viral RNA replication after 96 hrs by RT-PCR method; assay type: functional, cell-based, Hepacivirus hominis; details: Huh-7, 96 h
[9] = test system: Hepatitis C virus; assay: Antiviral activity against HCV genotype 2b infected in human HuH7 cells assessed as inhibition of viral RNA replication after 96 hrs by RT-PCR method; assay type: functional, cell-based, Hepacivirus hominis; details: Huh-7, 96 h
[10] = test system: Hepatitis C virus; assay: Antiviral activity against HCV genotype 3a infected in human HuH7 cells assessed as inhibition of viral RNA replication after 96 hrs by RT-PCR method; assay type: functional, cell-based, Hepacivirus hominis; details: Huh-7, 96 h
[11] = test system: Hepatitis C virus; assay: Antiviral activity against HCV genotype 4 infected in human HuH7 cells assessed as inhibition of viral RNA replication after 96 hrs by RT-PCR method; assay type: functional, cell-based, Hepacivirus hominis; details: genotype 4, Huh-7, 96 h
[12] = test system: cytochrome c oxidase subunit 2 DNA (mitochondrial DNA) levels; assay: Mitochondrial toxicity in human HepG2 cells assessed as inhibition of cytochrome c oxidase subunit 2 DNA levels at 50 uM measured on day 14 by RT-PCR method relative to nuclear beta-actin DNA levels; assay type: cell-based
[13] = test system: nuclear DNA levels; assay: Cytotoxicity against human HepG2 cells assessed as inhibition of nuclear DNA levels at 50 uM measured on day 14 by RT-PCR method relative to nuclear beta-actin DNA levels; assay type: cell-based; details: read-out: INH
[14] = test system: cytochrome c oxidase subunit 2 DNA (mitochondrial DNA) levels; assay: Mitochondrial toxicity in human HepG2 cells assessed as inhibition of cytochrome c oxidase subunit 2 DNA levels measured on day 14 by RT-PCR method; assay type: cell-based
[15] = test system: HepG2; assay: Cytotoxicity against human HepG2 cells assessed as inhibition of nuclear DNA levels measured on day 14 by RT-PCR method; details: HepG2, 336 h
[16] = test system: HepG2; assay: Mitochondrial toxicity in human HepG2 cells assessed as cytochrome c oxidase subunit 2 DNA levels at 10 uM measured on day 14 by RT-PCR method relative to nuclear beta-actin DNA levels; details: hepg2, 10 µM
[17] = test system: HepG2; assay: Mitochondrial toxicity in human HepG2 cells assessed as cytochrome c oxidase subunit 2 DNA levels at 50 uM measured on day 14 by RT-PCR method relative to nuclear beta-actin DNA levels; assay type: cell-based; details: hepg2, 50 µM
[18] = test system: HepG2; assay: Mitochondrial toxicity in human HepG2 cells assessed as lactic acid production at 10 uM measured on day 14 by spectrophotometric method relative to control; assay type: cell-based; details: hepg2, 10 µM
[19] = test system: HepG2; assay: Mitochondrial toxicity in human HepG2 cells assessed as lactic acid production at 50 uM measured on day 14 by spectrophotometric method relative to control; assay type: cell-based; details: hepg2, 50 µM
[20] = test system: cytochrome c oxidase subunit 2 DNA (mitochondrial DNA) levels; assay: in vitro; details: human, HepG2 cells
[21] = test system: nuclear DNA levels; assay: in vitro; details: human, HepG2 cells
[22] = target: DNA polymerase beta (Homo sapiens, UniProt P06746); assay: Inhibition of human DNA polymerase beta using 5' end radiolabeled 24nt DNA/48nt DNA as primer/template after 5 mins by PAGE analysis
[23] = Inhibition of human DNA polymerase gamma using 5' end radiolabeled 24nt DNA/36nt DNA as primer/template after 120 mins by PAGE analysis
[24] = in vitro; details: human, liver microsomes
Description: Half life in human liver microsomes at 1 uM by LC-MS/MS analysis

[25] = in vitro; details: human, liver microsomes; remark: listed apart in the source
Description: Clearance in human liver microsomes at 1 uM by LC-MS/MS analysis

[26] = in vitro; details: human, liver microsomes; remark: listed apart in the source
Description: Metabolic stability in human liver microsomes assessed as parent compound remaining at 1 uM at 60 mins by LC-MS/MS analysis

[27] = Inhibition of RNA polymerase 2 isolated from human HeLa cell nuclear extract assessed as decrease in incorporation of P32-alpha-CTP after 2 hrs by scintillation counting method; assay type: cell-free

SMILES | EC50 [1] | EC90 [1] | CC50 at 96 h [2] | CC50 at 120 h [3] | CC50 at 96 h [4] | CC50 at 72 h [5] | other results
CC(C)OC(=O)[C@H](C)NP(=O)(OC[C@H]1O[C@@H](n2ccc(N)nc2=O)[C@@](F)(Cl)[C@@H]1O)Oc1ccccc1 (some centres undefined) | 0.1 µM | 0.3 µM | > 10 µM | > 100 µM | > 100 µM | > 100 µM | –
Nc1nc2c(ncn2[C@@H]2O[C@H](CO)[C@@H](O)[C@]2(F)Cl)c(=O)[nH]1 | 19 µM | 33 µM | > 33 µM | > 100 µM | > 100 µM | > 100 µM | –
Nc1ccn([C@@H]2O[C@H](CO)[C@@H](O)[C@]2(F)Cl)c(=O)n1 | 0.3 µM | 0.9 µM | > 10 µM | 12 µM | > 100 µM | 8.4 µM | –
CC(C)OC(=O)[C@H](C)NP(=O)(OC[C@H]1O[C@@H](n2cnc3c(=O)[nH]c(N)nc32)[C@@](F)(Cl)[C@@H]1O)Oc1ccccc1 (some centres undefined) | 0.3 µM | 0.8 µM | > 10 µM | > 100 µM | > 100 µM | > 100 µM | –
O=c1ccn([C@@H]2O[C@H](CO)[C@@H](O)[C@]2(F)Cl)c(=O)[nH]1 | > 100 µM | > 100 µM | > 100 µM | > 100 µM | > 100 µM | > 100 µM | IC50 [6]: > 60 µM; IC50 [7]: > 60 µM; IC50 [8]: > 60 µM; IC50 [9]: > 60 µM; IC50 [10]: > 60 µM; IC50 [11]: > 60 µM; inhibition at 14 days, 50 µM [12]: < 1%; cytotoxicity at 14 days, 50 µM [13]: < 1%; IC50 at 14 days [14]: > 50 µM; IC50 [15]: > 50 µM; Activity [16]: 160%; Activity [17]: 120%; Activity [18]: 85%; Activity [19]: 120%; inhibition at 14 days, 10 µM [20]: < 1%; cytotoxicity at 14 days, 10 µM [21]: 8.8%
C[C@@]1(O)[C@H](O)[C@@H](CO)O[C@H]1n1ccc(N)nc1=O | 1.7 µM | 6.5 µM | > 10 µM | > 100 µM | > 100 µM | > 100 µM | –
C[C@@]1(F)[C@H](O)[C@@H](CO)O[C@H]1n1ccc(=O)[nH]c1=O | – | – | – | – | – | – | IC50 [6]: > 100 µM; IC50 [7]: > 100 µM; IC50 [8]: > 100 µM; IC50 [9]: > 100 µM; IC50 [10]: > 100 µM; IC50 [11]: > 100 µM
Cc1cn([C@H]2CC[C@@H](COP(=O)(O)OP(=O)(O)OP(=O)(O)O)O2)c(=O)[nH]c1=O | – | – | – | – | – | – | IC50 [22]: 19 µM; IC50 [23]: 43 µM
Nc1ncnc2c1ccn2[C@@H]1O[C@H](CO)C(O)C1(F)Cl (single isomer, unassigned) | > 10 µM | > 10 µM | > 10 µM | – | – | – | –
CC(C)OC(=O)[C@H](C)NP(=O)(OC[C@H]1O[C@@H](n2cnc3c(N)ncnc32)C(F)(Cl)C1O)Oc1ccccc1 (single isomer, unassigned) | 0.6 µM | 2.1 µM | > 33 µM | 84.8 µM | 36.3 µM | 53.9 µM | –
Nc1ncnc2c1c(F)cn2[C@@H]1O[C@H](CO)C(O)C1(F)Cl (single isomer, unassigned) | > 10 µM | > 10 µM | > 10 µM | 82.6 µM | 19.9 µM | 42.4 µM | –
Nc1ncnc2c1c(I)cn2[C@@H]1O[C@H](CO)C(O)C1(F)Cl (single isomer, unassigned) | > 10 µM | > 10 µM | > 10 µM | 6.6 µM | 7.3 µM | 11.5 µM | –
CC(C)OC(=O)[C@H](C)NP(=O)(OC[C@H]1O[C@@H](n2ccc3c(N)ncnc32)C(F)(Cl)C1O)Oc1ccccc1 (single isomer, unassigned) | > 10 µM | > 10 µM | > 10 µM | > 100 µM | 69 µM | > 100 µM | –
CC(C)OC(=O)[C@H](C)NP(=O)(OC[C@H]1O[C@@H](n2cc(F)c3c(N)ncnc32)C(F)(Cl)C1O)Oc1ccccc1 (single isomer, unassigned) | > 10 µM | > 10 µM | > 10 µM | 99.7 µM | 55.3 µM | 60.9 µM | –
Nc1ncnc2c1ncn2[C@@H]1O[C@H](CO)C(O)C1(F)Cl (single isomer, unassigned) | > 10 µM | > 10 µM | > 10 µM | > 100 µM | > 100 µM | > 100 µM | –
CC(C)OC(=O)[C@H](C)NP(=O)(OC[C@H]1O[C@@H](n2cc(I)c3c(N)ncnc32)C(F)(Cl)C1O)Oc1ccccc1 (single isomer, unassigned) | > 10 µM | > 10 µM | > 10 µM | > 100 µM | 69.3 µM | > 100 µM | –
O=C(O)Cc1ccccc1Nc1c(Cl)cccc1Cl [DICLOFENAC] | – | – | – | – | – | – | half-life at 1 µM [24]: 8.9 min; microsomal CLint at 1 µM [25]: 156 µL/min/mg; remaining at 1 h, 1 µM [26]: 1.2%
Nc1ccn([C@@H]2CS[C@H](CO)O2)c(=O)n1 [LAMIVUDINE] | – | – | – | – | – | – | IC50 at 14 days [14]: > 10 µM
C[C@]12CC[C@H]3[C@@H](CCC4=CC(=O)CC[C@@]43C)[C@@H]1CC[C@@H]2O [TESTOSTERONE] | – | – | – | – | – | – | half-life at 1 µM [24]: 15 min; microsomal CLint at 1 µM [25]: 92 µL/min/mg; remaining at 1 h, 1 µM [26]: 6.3%
Nc1ccn([C@H]2CC[C@@H](CO)O2)c(=O)n1 [ZALCITABINE] | – | – | – | – | – | – | IC50 at 14 days [14]: < 10 µM; IC50 [15]: < 10 µM; Activity [16]: 9.5%; Activity [18]: 330%; inhibition at 14 days, 10 µM [20]: 96%; cytotoxicity at 14 days, 10 µM [21]: 53%
CC[C@H](C)[C@@H]1NC(=O)CNC(=O)[C@@H]2Cc3c([nH]c4cc(O)ccc34)[S+]([O-])C[C@@H](NC(=O)CNC1=O)C(=O)N[C@@H](CC(N)=O)C(=O)N1C[C@H](O)C[C@H]1C(=O)N[C@@H]([C@@H](C)[C@@H](O)CO)C(=O)N2 (stereo partly drawn) [alpha-Amanitin] | – | – | – | – | – | – | IC50 [27]: 0.0025 µM
